{
  "source": "patent US10940201B2",
  "about": "“Nucleic acid derivative having immunostimulatory activity” (Shionogi & Co., Ltd., priority 2015, dated 2021)",
  "assay": "Subcutaneous irritation test in a single dose",
  "type": "in vivo, rats",
  "conditions": "for Gross: Crust / Gross: White matter accumulation / Histopathological, Subcutaneous: Cyst-like structure / Histopathological, Subcutaneous tissue: Cyst-like structure / Gross: Dark red spots / Gross: Edema / Gross: Epidermis: Crust: number of the observed animals; for Histopathological, Dermis: Inflammatory cell infiltration / Histopathological, Subcutaneous: Granulomatous inflammation / Histopathological, Subcutaneous: Inflammatory cell infiltration / Histopathological, Subcutaneous: Edema / Histopathological, Muscle layer: Edema / Histopathological, Muscle layer: Inflammatory cell infiltration / Histopathological, Muscle layer: Necrosis / Histopathological, Subcutaneous tissue: Bleeding / Histopathological, Subcutaneous tissue: Edema / Histopathological, Subcutaneous tissue: Inflammatory cell infiltration / Histopathological, Subcutaneous tissue: Necrosis / Histopathological, Subcutaneous: Necrosis: total score of grades",
  "procedure": "Subcutaneous irritation of a compound of the present invention was evaluated by gross examination and histopathological examination about the skin at necropsy one day, one and four week(s) after subcutaneous administration in a single dose.\nThe compound of the present invention was subcutaneously administered to the center of back between the shoulder blades of rats. At necropsy one day, one or four week(s) after administration (isoflurane anesthesia, euthanasia by bleeding), skin at the administration site was collected, grossly observed and fixed in 10% neutral buffered formalin solution. The fixed skin was cut out, embedded and put in a thin slice by the usual methods, and Hematoxylin-eosin (HE) stained sections were made. The pathological observers were observed the HE stained sections by an optical microscope, and recorded the histopathological findings. The changes in pathological findings were evaluated in four grades of Minimal; ±, Mild; +, Moderate; 2+ and Marked; 3+. When any grade was not appropriate for the finding, it was recorded as Positive.\nSEQ-2, SEQ-49 or an adjuvant of the present invention was dissolved in phosphate buffered saline and administered at 4.71, 15.7 or 47.1 nmol/1 mL/site, respectively.",
  "key": {"[1]": {"conditions": "four weeks after administration, 4.71 nmol/site"}, "[2]": {"conditions": "four weeks after administration, 15.7 nmol/site"}, "[3]": {"conditions": "four weeks after administration, 47.1 nmol/site"}, "[4]": {"conditions": "one day after administration, 4.71 nmol/site"}, "[5]": {"conditions": "one day after administration, 15.7 nmol/site"}, "[6]": {"conditions": "one day after administration, 47.1 nmol/site"}, "[7]": {"conditions": "one week after administration, 4.71 nmol/site"}, "[8]": {"conditions": "one week after administration, 15.7 nmol/site"}, "[9]": {"conditions": "one week after administration, 47.1 nmol/site"}},
  "data": [
    {"substance": "Amph1826 [SEQ-2]", "values": [
      {"measurement": "Number of deaths/imminent dissections", "setting": "[1]", "value": "0/0"},
      {"measurement": "Gross: Crust", "setting": "[1]", "value": 0},
      {"measurement": "Gross: White matter accumulation", "setting": "[1]", "value": 0},
      {"measurement": "Histopathological, Subcutaneous: Cyst-like structure", "setting": "[1]", "value": 0},
      {"measurement": "Histopathological, Dermis: Inflammatory cell infiltration", "setting": "[1]", "value": 0},
      {"measurement": "Histopathological, Subcutaneous: Granulomatous inflammation", "setting": "[1]", "value": 4},
      {"measurement": "Histopathological, Subcutaneous: Inflammatory cell infiltration", "setting": "[1]", "value": 0},
      {"measurement": "Number of deaths/imminent dissections", "setting": "[2]", "value": "0/0"},
      {"measurement": "Gross: Crust", "setting": "[2]", "value": 0},
      {"measurement": "Gross: White matter accumulation", "setting": "[2]", "value": 0},
      {"measurement": "Histopathological, Subcutaneous: Cyst-like structure", "setting": "[2]", "value": 0},
      {"measurement": "Histopathological, Dermis: Inflammatory cell infiltration", "setting": "[2]", "value": 4},
      {"measurement": "Histopathological, Subcutaneous: Edema", "setting": "[2]", "value": 0},
      {"measurement": "Histopathological, Subcutaneous: Granulomatous inflammation", "setting": "[2]", "value": 5},
      {"measurement": "Histopathological, Subcutaneous: Inflammatory cell infiltration", "setting": "[2]", "value": 0},
      {"measurement": "Number of deaths/imminent dissections", "setting": "[3]", "value": "0/0"},
      {"measurement": "Gross: Crust", "setting": "[3]", "value": 0},
      {"measurement": "Gross: White matter accumulation", "setting": "[3]", "value": 0},
      {"measurement": "Histopathological, Subcutaneous: Cyst-like structure", "setting": "[3]", "value": 0},
      {"measurement": "Histopathological, Dermis: Inflammatory cell infiltration", "setting": "[3]", "value": 7},
      {"measurement": "Histopathological, Subcutaneous: Edema", "setting": "[3]", "value": 0},
      {"measurement": "Histopathological, Subcutaneous: Granulomatous inflammation", "setting": "[3]", "value": 7},
      {"measurement": "Histopathological, Subcutaneous: Inflammatory cell infiltration", "setting": "[3]", "value": 0},
      {"measurement": "Number of deaths/imminent dissections", "setting": "[4]", "value": "0/0"},
      {"measurement": "Histopathological, Subcutaneous tissue: Cyst-like structure", "setting": "[4]", "value": 1},
      {"measurement": "Histopathological, Dermis: Inflammatory cell infiltration", "setting": "[4]", "value": 5},
      {"measurement": "Histopathological, Muscle layer: Edema", "setting": "[4]", "value": 1},
      {"measurement": "Histopathological, Muscle layer: Inflammatory cell infiltration", "setting": "[4]", "value": 4},
      {"measurement": "Histopathological, Muscle layer: Necrosis", "setting": "[4]", "value": 0},
      {"measurement": "Histopathological, Subcutaneous tissue: Bleeding", "setting": "[4]", "value": 0},
      {"measurement": "Histopathological, Subcutaneous tissue: Edema", "setting": "[4]", "value": 3},
      {"measurement": "Histopathological, Subcutaneous tissue: Inflammatory cell infiltration", "setting": "[4]", "value": 7},
      {"measurement": "Histopathological, Subcutaneous tissue: Necrosis", "setting": "[4]", "value": 1},
      {"measurement": "Number of deaths/imminent dissections", "setting": "[5]", "value": "0/0"},
      {"measurement": "Histopathological, Subcutaneous tissue: Cyst-like structure", "setting": "[5]", "value": 2},
      {"measurement": "Histopathological, Dermis: Inflammatory cell infiltration", "setting": "[5]", "value": 9},
      {"measurement": "Histopathological, Muscle layer: Edema", "setting": "[5]", "value": 3},
      {"measurement": "Histopathological, Muscle layer: Inflammatory cell infiltration", "setting": "[5]", "value": 7},
      {"measurement": "Histopathological, Muscle layer: Necrosis", "setting": "[5]", "value": 0},
      {"measurement": "Histopathological, Subcutaneous tissue: Bleeding", "setting": "[5]", "value": 3},
      {"measurement": "Histopathological, Subcutaneous tissue: Edema", "setting": "[5]", "value": 5},
      {"measurement": "Histopathological, Subcutaneous tissue: Inflammatory cell infiltration", "setting": "[5]", "value": 6},
      {"measurement": "Histopathological, Subcutaneous tissue: Necrosis", "setting": "[5]", "value": 1},
      {"measurement": "Number of deaths/imminent dissections", "setting": "[6]", "value": "0/0"},
      {"measurement": "Histopathological, Subcutaneous tissue: Cyst-like structure", "setting": "[6]", "value": 1},
      {"measurement": "Histopathological, Dermis: Inflammatory cell infiltration", "setting": "[6]", "value": 6},
      {"measurement": "Histopathological, Muscle layer: Edema", "setting": "[6]", "value": 4},
      {"measurement": "Histopathological, Muscle layer: Inflammatory cell infiltration", "setting": "[6]", "value": 6},
      {"measurement": "Histopathological, Muscle layer: Necrosis", "setting": "[6]", "value": 0},
      {"measurement": "Histopathological, Subcutaneous tissue: Bleeding", "setting": "[6]", "value": 3},
      {"measurement": "Histopathological, Subcutaneous tissue: Edema", "setting": "[6]", "value": 6},
      {"measurement": "Histopathological, Subcutaneous tissue: Inflammatory cell infiltration", "setting": "[6]", "value": 6},
      {"measurement": "Histopathological, Subcutaneous tissue: Necrosis", "setting": "[6]", "value": 1},
      {"measurement": "Number of deaths/imminent dissections", "setting": "[7]", "value": "0/0"},
      {"measurement": "Gross: Dark red spots", "setting": "[7]", "value": 0},
      {"measurement": "Gross: Edema", "setting": "[7]", "value": 0},
      {"measurement": "Gross: Epidermis: Crust", "setting": "[7]", "value": 0},
      {"measurement": "Gross: White matter accumulation", "setting": "[7]", "value": 0},
      {"measurement": "Histopathological, Subcutaneous: Cyst-like structure", "setting": "[7]", "value": 1},
      {"measurement": "Histopathological, Dermis: Inflammatory cell infiltration", "setting": "[7]", "value": 4},
      {"measurement": "Histopathological, Muscle layer: Inflammatory cell infiltration", "setting": "[7]", "value": 0},
      {"measurement": "Histopathological, Subcutaneous: Edema", "setting": "[7]", "value": 3},
      {"measurement": "Histopathological, Subcutaneous: Granulomatous inflammation", "setting": "[7]", "value": 0},
      {"measurement": "Histopathological, Subcutaneous: Necrosis", "setting": "[7]", "value": 0},
      {"measurement": "Number of deaths/imminent dissections", "setting": "[8]", "value": "0/0"},
      {"measurement": "Gross: Dark red spots", "setting": "[8]", "value": 0},
      {"measurement": "Gross: Edema", "setting": "[8]", "value": 1},
      {"measurement": "Gross: Epidermis: Crust", "setting": "[8]", "value": 0},
      {"measurement": "Gross: White matter accumulation", "setting": "[8]", "value": 0},
      {"measurement": "Histopathological, Subcutaneous: Cyst-like structure", "setting": "[8]", "value": 1},
      {"measurement": "Histopathological, Dermis: Inflammatory cell infiltration", "setting": "[8]", "value": 6},
      {"measurement": "Histopathological, Muscle layer: Inflammatory cell infiltration", "setting": "[8]", "value": 4},
      {"measurement": "Histopathological, Subcutaneous: Edema", "setting": "[8]", "value": 4},
      {"measurement": "Histopathological, Subcutaneous: Granulomatous inflammation", "setting": "[8]", "value": 0},
      {"measurement": "Histopathological, Subcutaneous: Inflammatory cell infiltration", "setting": "[8]", "value": 8},
      {"measurement": "Histopathological, Subcutaneous: Necrosis", "setting": "[8]", "value": 0},
      {"measurement": "Number of deaths/imminent dissections", "setting": "[9]", "value": "0/0"},
      {"measurement": "Gross: Dark red spots", "setting": "[9]", "value": 0},
      {"measurement": "Gross: Edema", "setting": "[9]", "value": 1},
      {"measurement": "Gross: Epidermis: Crust", "setting": "[9]", "value": 0},
      {"measurement": "Gross: White matter accumulation", "setting": "[9]", "value": 0},
      {"measurement": "Histopathological, Subcutaneous: Cyst-like structure", "setting": "[9]", "value": 3},
      {"measurement": "Histopathological, Dermis: Inflammatory cell infiltration", "setting": "[9]", "value": 9},
      {"measurement": "Histopathological, Muscle layer: Inflammatory cell infiltration", "setting": "[9]", "value": 6},
      {"measurement": "Histopathological, Subcutaneous: Edema", "setting": "[9]", "value": 3},
      {"measurement": "Histopathological, Subcutaneous: Granulomatous inflammation", "setting": "[9]", "value": 0},
      {"measurement": "Histopathological, Subcutaneous: Inflammatory cell infiltration", "setting": "[9]", "value": 8},
      {"measurement": "Histopathological, Subcutaneous: Necrosis", "setting": "[9]", "value": 0},
      {"measurement": "subcutaneous irritation findings four weeks after administration", "setting": "rats, single subcutaneous dose, four weeks", "value": "skin inflammation was not recovered, and granulomatous inflammation by continuous activation of monocyte/macrophage system was observed"},
      {"measurement": "subcutaneous irritation findings one day after administration", "setting": "rats, single subcutaneous dose, one day", "value": "inflammation cellular infiltration, edema and crust were observed"},
      {"measurement": "subcutaneous irritation findings one week after administration", "setting": "rats, single subcutaneous dose, one week", "value": "inflammation cellular infiltration, edema and crust were observed"}
    ]}
  ]
}
